Test results from patent US9421193B2, “Benzothiazole derivatives and a use thereof for the treatment of cancer” (Korea Institute of Radiological & Medical Sciences, priority 2014, dated 2016).

Columns and labels:
[1] = tested on: non-small cell lung cancer cell strain H460; assay: Nuclear agglutination and segmentation, Hoechst 33342 staining; type: cell-based, human; conditions: 50 uM, about 48 hours
Method: (§1) To observe typical nuclear morphological changes from cell death, the cells treated with the compounds PB01 or PB11 of Examples 5 and 3 were collected, followed by removing a supernatant. After 500 μl of a fixing solution as a 1:9 mixture of a 37% formaldehyde solution and PBS buffer solution was added into the remaining cells, thoroughly mixed together, and left at room temperature for about 10 minutes for fixation. After the fixed cells were centrifuged at about 2,000 rpm for about 5 minutes, the fixing solution was removed, and the remaining cells were floated in a PBS buffer solution. After dropping the floating cells onto a slide glass, followed by cytospinning at about 1,000 rpm for about 5 minutes to fix the floating cells onto the slide glass. The slide glass with the fixed cells was treated with 2 μg/mL of a Hoechst 33342 solution (Sigma, St. Louis, Mo., U.S.A), followed by staining at room temperature for about 20 minutes. After termination of the staining, the staining reagent was washed out, and nuclear morphological changes in the cancer cells were observed by florescent microscopy (ECLIPSE E600; Nikon, Tokyo, Japan) at a 400× magnification.

[2] = tested on: non-small cell lung cancer cell strain A549; assay: as above; type: cell-based, human; conditions: 50 uM, about 48 hours
Method: as §1

[3] = tested on: non-small cell lung cancer cell strain H460; assay: LDH release; type: cell-based, human; conditions: 50 uM, 0 to 48 hours, compared to untreated
Method: (§2) After incubation of the non-small cell lung cancer cell strains A549 and H460 treated with the compound PB01 or PB11 for 8, 24, and 48 hours, only supernatants were recovered the culture products. The activity of lactate dehydrogenase (LDH) may be measured by detecting an amount of LDH released from the cell cytosol with a Cytotoxicity Detection Kit (available from Roche Applied Science, Indianapolis, Ind.). The amounts of LDH release induced by the compound PB01 or PB11 were calculated as a percentage amount of extracellular LDH released from the cells with respect to a total amount of LDH as a sum of the extracellular released LDH and the intracellular LDH remaining in the cells.

[4] = tested on: non-small cell lung cancer cell strain A549; assay: LDH release; type: cell-based, human; conditions: 50 uM, 0 to 48 hours, compared to untreated
Method: as §2

[5] = tested on: non-small cell lung cancer cell strain H460; assay: Apoptosis ratio, Annexin V flow cytometry; type: cell-based, human; conditions: about 40 hours, 50 μM PB01, 50 μM PB11, 150 μM PB12, FIGS. 9A and 9B
Method: (§3) About 5×10^5 cells per well of each of the non-small cell lung cancer cell strains A549 and H460 were portioned into a 6-well plate and then incubated with the compounds PB01 or PB11 for about 40 hours in the same manner as described above. A cell layer was washed with PBS and then treated with trypsin-EDTA solution to isolate cells. The isolated cells were collected and stained with an Annexin V Flous Staining kit (available Roche Applied Science, Penzberg, Germany) in a dark condition for about 30 minutes. The stained cells were analyzed by flow cytometry using a FACScan™ (available from Becton Dicknson) to count the number of dead cells and then calculate an apoptosis ratio. The same experiment was performed with 50 μM of PB01, 50 μM of PB11, or 150 μM of PB12 in the same manner as described above. The graphs of cell viability with respect to compound concentration and incubation time obtained based on the experimental results are shown in FIGS. 9A and 9B.

[6] = tested on: non-small cell lung cancer cell strain A549; assay: Apoptosis ratio, Annexin V flow cytometry; type: cell-based, human; conditions: 50 μM, about 40 hours, FIG. 9A
Method: as §3

3T3-L1 cells = assay: PPAR-γ ligand identification test: adipogenesis induction, Oil-Red-O staining; type: cell-based; conditions: 10 μM, about 48 hours
Method: The ability to induce adipogenesis of the compound PB11 of Example 3 and the compound PB01 of Example 5 was tested to identify whether the compounds PB11 and PB01 had activity of PPAR-γ ligands. 3T3-L1 cells (American Type Culture Collection, Manassas, Va.) were treated with 10 μM of the compounds PB11 or PB01 to induce adipogenesis. 3T3-L1 cells without any treatment, those treated with the same concentration of ciglitazone, and those treated with the same concentration of GW9662 (Cayman, Ann Arbor, Mich.) known as PPAR-γ ligand antagonist were used as control groups. After the induction of adipogenesis for about 48 hours, a degree of adipogenesis was identified by Oil-Red-O staining.
FIG. 1 illustrates the results of imaging degrees of adipogenesis via Oil-Red-O staining after the treatment of 3T3-L1 cells with control compounds and 10 μM of the compounds PB01 or PB11 of Examples 3 and 5 for about 48 hours to induce adipogenesis.

[7] = tested on: various cancer cell strains (A549, H460, MCF-7, T-470, LoVo, SW480, HL-60, K562); assay: Cancer cell growth inhibition, WST-1 cell viability; type: cell-based, human; conditions: for selectivity of cell growth inhibitory effect, cancer versus non-cancer cell strains: cancer cell strains vs MRC-5 and MRC-9; for growth inhibitory effects on various cancer cell strains: concentration of 50 μM, WST-1
Method: Cancer cell growth inhibitory effects of the compounds PB01 and PB11 of Examples 5 and 3 identified as PPAR-γ ligands were evaluated. Growth inhibitory effects of the compounds PB01 and PB11 of Examples 5 and 3 on various cancer cells, including human non-small cell lung cancer cell strains (A549, H460), breast cancer cell strains (MCF-7, T-470), colorectal cancer cell strains (LoVo, SW480), and leukocytes cancer cell strains (HL-60, K562) (American Type Culture Collection, Manassas, Va.), were evaluated using WST-1 method. About 5×10^3 cells per well of each type of cancer cell strains were portioned into a 96-well plate, and incubated with different concentrations of each of the compounds PB01 and PB11 of Examples 5 and 3 in 200 ul of a culture solution for 24 hours, 48 hours, and 72 hours. After the incubation for the different durations, 10 ul of a WST-1 solution was added to each well, followed by incubation at about 37° C. for about 1 hour. Absorbance at 450 nm was measured to determine cell viability.

[8] = tested on: non-small cell lung cancer cells H460; assay: Sub-G1 phase cell number, propidium iodide flow cytometry; type: cell-based, human; conditions: 50 μM, 48 hours
Method: (§4) After incubation of the non-small cell lung cancer cells A549 and H460 treated with 50 μM of the compound PB01 or PB11 of Examples ?5 and 3 for 48 hours, the non-small cell lung cancer cells A549 and H460 were collected and floated with a 1×PBS (pH 7.4), followed by fixing at about −20° C. with a 70% cold ethanol, washing twice with a 1×PBS, and then staining with 10 μg/mL of propidium iodide (including 0.5% of PI, Tween-20, 100 μg/mL of 0.1% RNase) at room temperature for about 30 minutes. The stained cells were analyzed by flow cytometry with a FACScan™ (available from Becton Dicknson).

[9] = tested on: non-small cell lung cancer cells A549; assay: as above; type: cell-based, human; conditions: 50 μM, 48 hours
Method: as §4

| Structure (SMILES) | nuclear morphological changes (apoptotic bodies) [1] | nuclear morphological changes (apoptotic bodies) [2] | amount of extracellular LDH released [3] | amount of extracellular LDH released [4] | apoptosis induction (Annexin V) [5] | apoptosis induction (Annexin V) [6] | PPAR-γ ligand identification (3T3-L1 cells) | ability to induce adipogenesis (3T3-L1 cells) | selectivity of cell growth inhibitory effect, cancer versus non-cancer cell strains [7] | growth inhibitory effects on various cancer cell strains [7] | number of sub-G1 phase cells [8] | number of sub-G1 phase cells [9] |
| --- | --- | --- | --- | --- | --- | --- | --- | --- | --- | --- | --- | --- |
| COC1CCC(C(=O)Nc2ccc3nc(SCc4c(C)noc4C)sc3c2)CC1 (stereo not drawn) [PB01] | increased apoptotic bodies due to nuclear agglutination | increased apoptotic bodies due to nuclear agglutination | increased with time | increased with time | kill the non-small cell lung cancer cells by inducing apoptosis | kill the non-small cell lung cancer cells by inducing apoptosis | found to be PPAR-γ ligands | outstanding ability to induce adipogenesis | selectively only on cancer cell strains | prominent | sharp increase | sharp increase |
| Cc1noc(C)c1CSc1nc2ccc(NC(=O)C3CCC(=O)CC3)cc2s1 [PB11] | increased apoptotic bodies due to nuclear agglutination | increased apoptotic bodies due to nuclear agglutination | increased with time | increased with time | kill the non-small cell lung cancer cells by inducing apoptosis | kill the non-small cell lung cancer cells by inducing apoptosis | found to be PPAR-γ ligands | high activity in adipogenesis induction | selectively only on cancer cell strains | prominent | sharp increase | sharp increase |
